# Experimental data: US10653705B2, “Applications for estrone in preparing anti-ovarian cancer and/or breast cancer products” (SHANGHAI JIAO TONG UNIVERSITY, priority 2015, dated 2020)
# pEC50, pIC50: −log10 of the molar value.
# What was measured:
# Format in all cases: cell-based
# [1] = system: SKOV-3 ovarian cancer cells; assay: CellTiter-Glo luminescent cell viability assay, SKOV-3 ovarian cancer cells
# Text: (§1) In example 1, CELLTITER-GLO was used to test estrone against ovarian cancer and/or breast cancer m) A cell counter was used to count the number of suspended cells and adjust the cell suspension to an appropriate density in the plate to carry out cell plating experiments. SKOV-3 cells were handled as described above, and a SKOV-3 96-well cell culture plate was obtained. The complete medium for SKOV-3 cells was McCOY'S 5A (a live product), Cat #16600082, with a cells/well density of 12000. 2. The drug analyte estrone was prepared and administered (200× final concentration): a) DMSO was used to dilute the analyte estrone to 20 mM for use. b) 79 μL of the 20 mM analyte prepared in step a) was added to the first well in the first row of the dilution plate, and then 54 μL of DMSO solution was added to the second through ninth wells of the first row. […] The final concentrations (μM) of the analyte drug in wells 2-10 in FIG. 1 are, in order: 100, 31.64557, 10.01442, 3.16912, 1.002886, 0.317369, 0.100433, 0.031783, 0.010058; B. CELLTITER-GLO Luminescent Cell Viability Assay System a) Before testing, the SKOV-3 96-well drug screening plate described in 3 above was stabilized to room temperature for 20-30 minutes. c) 100 μl of CellTiter-Glo reagent (prepared as described in 1 above) was added to all drug screening plates and mixed evenly. d) It was thoroughly oscillated in a 96-well microplate oscillator for 2 minutes to allow the cells to undergo full lysis. e) It was stored away from light at room temperature for 15 minutes before carrying out luminescent signal detection to ensure signal stability. f) An EnSpire multi-function plate reader was used at 570 nm to read the luminescent signals. g) Data was processed and analyzed.
# [2] = system: HCC1395 breast cancer cells; assay: CellTiter-Glo luminescent cell viability assay, HCC1395 breast cancer cells; conditions: Homo sapiens, 72 hours
# Protocol: as §1, with “experiments.” for “experiments. SKOV-3 cells were handled as described above, and a SKOV-3 96-well cell culture plate was obtained. The complete medium for SKOV-3 cells was McCOY'S 5A (a live product), Cat #16600082, with a cells/well density of 12000.”, “System” for “System a) Before testing, the SKOV-3 96-well drug screening plate described in 3 above was stabilized to room temperature for 20-30 minutes.”, “analyzed. […]” for “analyzed.”
# [3] = system: NCI-H1437 human lung cancer cells; assay: CellTiter-Glo luminescent cell viability assay, NCI-H1437 human lung cancer cells; conditions: 72 hours
# [4] = system: NCI-H460 large-cell lung cancer cells; assay: CellTiter-Glo luminescent cell viability assay, NCI-H460 large-cell lung cancer cells; conditions: Homo sapiens, 72 hours
smiles,measurement,setting,value
C[C@]12CC[C@@H]3c4ccc(O)cc4CC[C@H]3[C@@H]1CCC2=O [Estrone],pIC50,"[1]; Homo sapiens, SK-OV-3, SKOV-3 cells, 72 hours, CellTiter-Glo",4.67
same,pEC50,"[1]; Homo sapiens, SK-OV-3, SKOV-3 cells, 72 hours, CellTiter-Glo, FIG. 2",4.78
same,effect on the proliferation of ovarian cancer cells,[1]; compared with the lung cancer cell lines of Table 1,specific inhibitory effect
same,pIC50,[2],4.17
same,pEC50,[2]; FIG. 3,1.13
same,pIC50,[3],≤ 4.00
same,pIC50,[4],≤ 4.00
